Laboratory results as given in patent US20230257315A1, “AGRICULTURE COMPOSITIONS AND AP[…] MINERAL COMPOUNDS” (Ralco Nutrition, Inc., priority 2012, published 2023).

Legend:
[1] = test system: corn; conditions: 5 g elemental cobalt per acre in-furrow
Description: Various cobalt compounds were applied in-furrow to natural soil with corn seeded, then grown in greenhouse conditions. The cobalt compounds were applied at a rate of 5 g elemental cobalt per acre and compared to an untreated control. The compounds included: cobalt acetate, cobalt carbonate, cobalt gluconate and cobalt sulfate. The trial consisted of four replicates in a randomized complete block design. The plants were harvested after 53 days of growth and measured for plant health characteristics and nutrient uptake.

[2] = test system: corn; test: Greenhouse study of absorptivity of cobalt lactate into corn vegetative tissue with and without glyphosate; type: in vivo; conditions: foliar spray at V4-V6, day 6
Description: A greenhouse study was completed to evaluate the absorptivity of cobalt lactate into corn vegetative tissue when applied with and without glyphosate herbicide. The corn seeds were potted in natural soil and allowed to grow to the V4-V6 growth stage. At this time the plants were treated with foliar sprays of cobalt lactate, and cobalt lactate with glyphosate and ammonium sulfate (AMS). The glyphosate was commercially available and used at the recommended use rate of 1 qt per acre. The AMS was applied as described in Example 6. Six replicate vegetative portions of the plants were sampled at days 1 and 6 after the application and analyzed for cobalt content.
The initial absorption rate was slowed with the addition of glyphosate and AMS to the cobalt lactate solution.

[3] = test system: field corn; test: Cobalt lactate in-furrow with field corn, greenhouse, nutrient uptake; type: in vivo; conditions: 5 g cobalt per acre in-furrow, 53 days of growth
[4] = 53 days of growth, vs untreated control

## CC(=O)[O-].CC(=O)[O-].[Co+2] [cobalt acetate]
[1]; [4]
  increase in the vegetative N content: 1.7%
  increase in vegetative K concentration: 9.3%
[1]; vegetative tissue, 53 days
  tissue concentration increase Fe: 20.9%
  tissue concentration increase Mn: 37.5%
  tissue concentration increase Zn: 9.4%

## O=C([O-])[O-].[Co+2] [cobalt carbonate]
[1]; [4]
  increase in root mass: 6.7%
  vegetative wet weight: slight increase

## cobalt gluconate
[1]; [4]
  increase in vegetative K concentration: 2.3%

## cobalt lactate
[2]
  cobalt concentration in vegetative tissue after 6 days: consistent between the two treatments
[3]
  increase of nitrogen within the vegetation over the untreated control: 4.6%
  increase of potassium within the vegetation over the untreated control: 7.8%
  nitrogen concentration increase within the root over the untreated control: 2.2%
  phosphorus concentration increase within the root over the untreated control: 4.2%
  phosphorus content within the vegetation versus untreated control: no difference
  potassium concentration increase within the root over the untreated control: 12.2%
